Experimental data as given in PMC11232401, “Characterization of antimalarial activity of artemisinin-based hybrid drugs” (Antimicrobial Agents and Chemotherapy, 2024).
Read-outs that look alike come from different tables or passages of the source. Each block holds one compound with its values, some of them ahead of it.

Experiments:
[1] = test system: P. falciparum Dd2 strain; design: method as in PMID 31290221, PMID 34832911, PMID 38559731; conditions: asynchronous culture, SYBR Green I; read-out: IC50 (nM, median ± SEM) for P. falciparum Dd2 strain; cited from earlier work
[2] = test system: P. berghei-infected mice; design: method as in PMID 31290221, PMID 34832911, PMID 38559731; conditions: Peters test; cited from earlier work
[3] = test system: P. falciparum 3D7 strain; design: method as in PMID 31290221, PMID 34832911, PMID 38559731; conditions: asynchronous culture, SYBR Green I; read-out: IC50 (nM, median ± SEM) for P. falciparum 3D7 strain; cited from earlier work
[4] = test system: hematin (iron III)-initiated β-hematin formation; assay: β-hematin inhibitory activity under oxidizing condition (O-BHIA); assay type: biochemical; conditions: hematin as starting reagent; mean (95% CI)
Method: (§1) The compounds were dissolved in DMSO and diluted in DMSO to six different concentrations (1.0–32 mM). Hemin (Fe^III[PPIX]Cl) (BioXtra, Sigma-Aldrich) was first dissolved in 0.1 M NaOH and then suspended in an 80:20 vol/vol mixture of DMSO and propionate buffer (0.1 M, pH 5.6) to a stock solution at 8 mM. Reduced glutathione (GSH) was dissolved in 0.1 M NaOH and then adjusted to 10 mM using propionate buffer (0.1 M, pH 5.6). For β-hematin inhibitory activity (BHIA) under the reducing condition (R-BHIA), hemin (10 µL) and GSH (10 µL) were distributed in a 96-well plate and homogenized, and the plates were sealed using a thin plastic film and incubated for 1 h at 37°C. Then, 20 µL of the drug was added, and the plates were incubated for 2 h at 37°C. The plastic film was removed after drug incubation, 160 µL propionate buffer (1.0 M, pH 5.6) was added, and plates were incubated for 18 h at 37°C. BHIA under the oxidizing condition (O-BHIA) was prepared in parallel without adding GSH. Controls included wells without drugs and wells containing PBS 1× instead of propionate buffer. Afterward, the plates were centrifuged, the supernatant was discarded, and the pellets of β-hematin crystals were washed twice with pure DMSO and then water. The resulting β-hematin crystals were then dissolved in 200 µL 0.1 M NaOH and diluted to a 1:8 ratio. Aliquots were then transferred into a new plate and read by UV-visible absorbance at […]. Percent of BHIA was calculated in comparison to untreated wells (no drugs), and IC50 was then calculated. Two independent experiments were performed using three replicates of each drug concentration ([46]).
(§2) Figure S6: A summary of IC50 values derived from β-hematin inhibitory activity (BHIA). Footnotes for table: ^[a,b^] Values are mean and 95% confidence interval of one experiment, each concentration in triplicate. ^[a] Using heme (Fe[II]PPIX[Cl]) as a starting reagent. ^[b] Using hematin (Fe[III]PPIX[OH]) as a starting reagent. ^[c] […] CQ = chloroquine. R-BHIA = reducing β-hematin inhibitory activity. O-BHIA = oxidizing β-hematin inhibitory activity.

[5] = test system: P. falciparum; assay: Parasite growth inhibition (cell potency); assay type: cell-based; conditions: Plasmodium falciparum; strain and exposure not stated at the place
[6] = test system: Ring stages of NF54 strain P. falciparum; assay: Antiplasmodial activity of drug combinations (pLDH, isobologram/FIC); assay type: cell-based; conditions: Plasmodium falciparum, mean (95% CI), tested in parallel with the combination of the same line
Method: The activity of the drug combinations against the P. falciparum NF54 strain was determined as described above. In each experiment, drugs were tested alone and in combination. Twofold serial dilutions of the drug solutions were made using fixed molar ratios of 1:1, 1:3, and 3:1 for each combination and using two technical replicates (ranging from 200 to 1.0 nM). Parasite growth was determined by the pLDH method, as described above. IC50 values for each drug alone or in combination were determined, and an isobologram analysis was performed by plotting the fractional inhibitory concentrations (FIC) for each combination and its component drugs separately. Individual FIC values were calculated as the IC50 of the drug combination divided by the IC50 of the drug in isolation. A dashed line was plotted to indicate any additive effect and distinguish antagonism (above the dashed line) from synergism (below the dashed line). Three independent experiments were performed, each one containing two replicates. Each experiment was used to represent an isobologram analysis [mean and 95% confidence interval (CI)].
Values represent one experiment; each concentration of drug combination was tested in technical duplicate. Black dashed line indicates ΣFIC = 1 (absolute additivity). […] FIC index <1 is synergistic, ~1 is additive, and >1 is antagonistic. Nondetrimental interactions are 0.25 <ΣFIC <1.25.
^[a] Values are the mean and 95% confidence interval of one experiment for each concentration of compounds in duplicate.

[7] = test system: heme (iron II)-initiated β-hematin formation; assay: β-hematin inhibitory activity under reducing condition (R-BHIA); assay type: biochemical; conditions: mean (95% CI)
Method: as §1, with “For β-hematin inhibitory activity (BHIA) under the reducing condition (R-BHIA), hemin (10 µL) and GSH (10 µL) were distributed in a 96-well plate and homogenized, and the plates were sealed using a thin plastic film and incubated for 1 h at 37°C.” left out
as §2

[8] = test system: NF54 strain of P. falciparum; assay: Ring-stage-specific drug activity (pLDH); assay type: cell-based; conditions: Plasmodium falciparum, median ± SEM
Method: Each compound was dissolved in dimethyl sulfoxide (DMSO) and diluted in RPMI-1640 medium into seven different concentrations, which were tested against CQ-susceptible strains (NF54 or D10) or a CQ-resistant strain (W2). Each well of 96-well plates was filled with 100 µL drug and 100 µL parasitized RBC (asynchronous parasite culture), which were mixed to obtain a final parasitemia of 1.0% to 1.5% and 1.0% hematocrit. Plates were incubated for 72 h at 37°C in a standard gas mixture; then, parasite growth was determined by measuring the activity of the parasite lactate dehydrogenase (pLDH) ([38]). Briefly, at the end of incubation, the cultures were carefully resuspended, and 20 µL aliquots were removed and added to 100 µL Malstat reagent in a 96-well microplate. The Malstat reagent is made of 0.125% TritonX-100, 130 mM L-lactate, 30 mM Tris buffer, and 0.62 µM 3-acetylpyridine adenine dinucleotide. After that, 20 µL 1.9 µM nitro blue tetrazolium (NBT) and 0.24 µM phenazine ethyl sulfate were added to the plate. NBT was reduced to blueformazan and spectrophotometrically read at OD 650 nm using a Synergy 4 microplate reader (BioTek, Santa Clara, USA). […] IC50 values were expressed as means of two to three independent experiments, with each drug concentration in duplicate.
The NF54 strain of P. falciparum was employed to test the drugs’ activity against ring stages and asynchronous parasite culture (all stages). The ring stages were obtained by synchronization with D-Sorbitol using a standard method ([39]). Each well of 96-well plates was filled with 100 µL each drug and 100 µL culture containing ring-stage or asynchronous parasites, which were mixed to obtain a final parasitemia of 1.0% to 1.5% and 1.0% hematocrit. […] Plates were processed using the pLDH method, and IC50 values were calculated as described above. At least two to three independent experiments were performed, using two technical replicates.
^[a] Synchronized ring-stage parasites were incubated in the presence of compounds for 6 h, drugs were removed by washing, and plates were incubated for an additional 66 h. ^[b] Asynchronous parasites were incubated in the presence of compounds for 6 h, drugs were removed by washing, and plates were incubated for an additional 66 h. ^[c] Asynchronous parasites were incubated in the presence of compounds for 72 h. ^[a,b^] Experiments were performed in parallel. ^[d] […] Parasite viability was determined by parasite lactate dehydrogenase. Data are from three experiments performed in duplicate. MFQ = mefloquine; DHA = dihydroartemisinin; SEM = standard error of the mean.

[9] = test system: ring stages of NF54 strain of P. falciparum; assay: Exposure time dependence in drug activity (pLDH); assay type: cell-based; conditions: Plasmodium falciparum
Method: Each well of 96-well plates was filled with 100 µL drug and 100 µL culture containing ring-stage P. falciparum (NF54 strain) parasites, which were mixed to obtain a final parasitemia of 1.0% to 1.5% and 1.0% hematocrit. Plates were incubated at 37°C in a standard gas mixture. After 3 h and 6 h, plates were centrifuged, cell pellets were washed as described above then returned to the incubator for an additional 69 h and 66 h, respectively. In parallel, the same experiment was left without the washing step, enabling continuous drug exposure throughout. Plates were processed using the pLDH method, and IC50 values were calculated as described above. Three independent experiments were performed using two technical replicates.
Figure S2: Exposure time dependence of antiparasitic activity against ring stages of CQ-sensitive strain NF54 of P. falciparum. Data associated to Figure 2B in the main text of the manuscript. Footnotes for table: ^[a] Synchronized ring-stage parasites were incubated in the presence of compounds at indicated times, drugs were removed by washing, and plates were incubated until 72 h.^[b] Parasites were incubated in the presence of compounds for 72 h. ^[a,b^] Experiments were performed in parallel (paired). Parasite viability was determined by parasite lactate dehydrogenase (pLDH) assay. Data are from three experiments performed in duplicate.^ [c] […] MFQ = mefloquine. DHA = dihydroartemisinin; SEM = standard error of the mean; N.S. = not statistically significant.

[10] = in vivo; cited from earlier work

SMILES: C[C@@H]1CC[C@H]2[C@@H](C)C(=O)O[C@@H]3O[C@@]4(C)CC[C@@H]1[C@]32OO4 [ART, artemisinin]
- IC50 [1]: 11.3 ± 1.8 nM
- In vivo parasitemia reduction (%) [2]: 78.5 ± 9.0%
- IC50 [3]: 26.8 ± 2.4 nM

SMILES: CCN(CC)CCCC(C)Nc1ccnc2cc(Cl)ccc12 (stereo not drawn) [CQ, chloroquine, reference compound]
- IC50 [1]: 165 ± 16 nM
- IC50 [4]: 228 µM
- IC50 [5]: 0.0145 µM
- IC50 ([6]; NF54, read-out: IC50, Drugs alone, ring stages NF54): 0.0104 µM
- IC50 [3]: 12.7 ± 2.5 nM
- IC50 ([7]; reductive step 10 minutes, read-out: IC50 (µM) values of R-BHIA using heme (iron II), 10 minutes): 189 µM
- IC50 ([7]; reductive step 120 minutes, read-out: IC50 (µM) values of R-BHIA using heme (iron II), 120 minutes): 222 µM

- IC50 ([6]; NF54, ring stages NF54, read-out: IC50, Drugs alone): 0.017 µM
- IC50 ([8]; asynchronous parasites, 6 h drug, wash, additional 66 h, read-out: IC50, Asynchronous): 0.0616 ± 0.0119 µM
- IC50 ([8]; asynchronous parasites, 72 h continuous drug, read-out: IC50, 72 h): 0.0202 ± 0.0013 µM
- IC50 ([8]; synchronized ring stages, 6 h drug, wash, additional 66 h, read-out: IC50, Ring stages): 0.0372 ± 0.0052 µM
- IC50 ([9]; NF54, 6 h drug pulse, wash, incubated until 72 h, median ± SEM, read-out: IC50, 6 h + 66 h): 0.0372 ± 0.0052 µM
- IC50 ([9]; NF54, 72 h continuous drug, median ± SEM, read-out: IC50, 72 h): 0.0103 ± 0.0026 µM
- IC50 ([9]; NF54, read-out: IC50, 3 h + 69 h, 3 h drug pulse, wash, incubated until 72 h, median ± SEM): > 0.6 µM
SMILES: OC(c1cc(C(F)(F)F)nc2c(C(F)(F)F)cccc12)C1CCCCN1 (stereo not drawn) [MFQ, mefloquine, reference compound]

SMILES: CC(C)(N)CNC(=O)C[C@H]1CC[C@]2(CC1)OO[C@]1(O2)C2CC3CC(C2)CC1C3 [OZ277]
- half-life (t1/2) [10]: 2 to 4 h
